According to patent publication US9302993B2, “8-hydroxy quinoline derivatives” (PRANA BIOTECHNOLOGY LIMITED, priority 2002, dated 2016):
Converted amounts (≈) assume the structure as drawn. Where two headings read alike, the source gives them in different places.

Columns and labels:
APP2576 transgenic mouse = assay: Transgenic mouse brain immunohistochemistry, plaque abundance (Assay 15); type: in vivo; conditions: for % difference from control (sham treated animal): plaque score; for Mean plaque score: scale 0 to 4
Text: Assay 15. Transgenic Mouse Brain Immunohistochemistry
The APP2576 transgenic mouse (Hsiao et al., 1996) as referred to in Assay 11 were utilized in this assay. The contralateral formalin-fixed mouse brain tissue was coronally cut. Sections (10 μm) were taken from the corresponding sites and treated with 80% formic acid for antigen retrieval. The primary antibody used was monoclonal antibody 1E8, which recognizes epitopes between residues 18 and 22 of Aβ (SmithKline Beecham, UK). Immunoreactivity was developed with secondary antibody linked to horseradish peroxidase (using a 3,39-diaminobenzidinechromagen) (Dako) and alkaline phosphatase (using 5-bromo-4-chloro 3-indoxyl phosphate and nitroblue tetrazolium chloride chromagen) (Dako). Plaque abundance per section was assessed by two operators blinded to treatment according to the following scale:
1=plaques present but very sparse
2=several plaques present
3=numerous plaques visible in restricted areas
4=plaques abundant and not restricted to any particular area.
Intermediate values eg 2.5 were assigned where applicable.
Students' t ‘test was used for comparisons between groups.

[1] = Toxicity at 30 mg/kg (In vivo Efficacy and Safety Profile)
[2] = tested on: Aβ in extract of tissue from post mortem human AD brain; assay: Human brain amyloid solubilisation assay (Assay 9, BAS); type: biochemical; conditions: solubilising plaques relative to PBS
How it was run: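 Plaque-bearing post mortem AD cortex homogenised in ice-cold PBS pH 7.4 and spun 100,000×g, 30 min to separate PBS-soluble supernatant from insoluble pellet. Aβ in each fraction resolved on Tris-Tricine 10-20% gels, immunoblotted with W02 antibody and ECL, quantified by densitometry against synthetic Aβ40 standards (0.5, 1, 2 ng).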

[3] = target: T1, hydrogen peroxide generation by Aβ in the presence of copper (Homo sapiens, UniProt P05067); assay: Fluorometric H2O2 assay (Assay 1); type: biochemical; conditions: Aβ 1-42 with Cu-Gly, DCF/HRP, 37 C 60 min; several values in one cell = repeat determinations; read-out: Peroxide IC50
T1 construct: The reaction solutions contained Aβ 1-42 at concentrations in the range of 50 nM to 1 μM
T1 sequence (P05067 672-713 limits assumed): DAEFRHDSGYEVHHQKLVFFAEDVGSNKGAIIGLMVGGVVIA
How it was run: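 Aβ1-42 (50 nM–1 μM) with Cu-glycine (2 Cu-Gly : 1 Aβ) and a reductant (dopamine 5 μM or ascorbic acid) was incubated 60 min at 37 °C in PBS pH 7.4 with test compound. H2O2 was detected with 100 μM deacetylated DCF and 0.1 μM HRP by fluorescence against H2O2 standards.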

[4] = Turbidimetric solubility measurements (Assay 13); type: physicochemical; conditions: kinetic from dmso stock, 1% DMSO, nephelometry
Description: Turbidimetric Solubility Measurements
The solubility estimate was measured at both pH 2.0 and pH 6.5. This is within the pH range that can be anticipated along the proximal gastrointestinal tract in humans.
The compounds were dissolved in DMSO to appropriate concentrations and then spiked into either 0.01M HCl (approx. pH=2.0) or pH 6.5 isotonic phosphate buffer, the final DMSO concentration being 1%. Samples were then analysed via Nephelometry to determine a solubility range. [as per D. Bevan and R. S. Lloyd, Anal. Chem. 2000, 72, 1781-1787].

[5] = aqueous buffer, pH 6.5 isotonic phosphate buffer, read-out: Solubility pH 6.5
[6] = simulated gastric fluid, 0.01M HCl (approx. pH 2.0), read-out: Solubility (μg/mL) 0.01M HCl

CN(C)Cc1ccc2c(Cl)cc(Cl)c(O)c2n1.Cl [compound 1033, 5,7-Dichloro-2-dimethylaminomethyl-quinolin-8-ol hydrochloride]
% difference from control (sham treated animal) (APP2576 transgenic mouse): −41%
Mean plaque score (APP2576 transgenic mouse): 2.06
Toxicity at 30 mg/kg [1]: None
BAS Score [2]: +
IC50 [3]: 380 nM
solubility [4, 5]: 3.1 to 6.2 µg/mL
solubility [4, 6]: < 3.1 µg/mL

Cn1cnc(CCNC(=O)c2ccc3c(Cl)cc(Cl)c(O)c3n2)c1 [compound 1050, 5,7-dichloro-8-hydroxyquinoline-2-carboxylic acid [2-(1-methyl-1H-imidazol-4-yl)-ethyl]-amide]
IC50 [3]: 280 nM
solubility [4, 5]: 12.5 to 25 µg/mL (≈ 34.2 to 68.5 µM)
solubility [4, 6]: 25 to 50 µg/mL (≈ 68.5 to 137 µM)

CCNCc1ccc2c(Cl)cc(Cl)c(O)c2n1.Cl [compound 1051, 5,7-dichloro-2-ethylaminomethyl-quinolin-8-ol hydrochloride]
% difference from control (sham treated animal) (APP2576 transgenic mouse): −39%
Mean plaque score (APP2576 transgenic mouse): 2.13
BAS Score [2]: +
solubility [4, 5]: < 3.1 µg/mL
solubility [4, 6]: < 3.1 µg/mL

O=C(NCCc1c[nH]cn1)c1ccc2c(Cl)cc(Cl)c(O)c2n1 [compound 1038, 5,7-Dichloro-8-hydroxyquinoline-2-carboxylic acid [2-(1H-imidazol-4-yl)-ethyl]-amide]
% difference from control (sham treated animal) (APP2576 transgenic mouse): −17%
Mean plaque score (APP2576 transgenic mouse): 3.0
BAS Score [2]: +
solubility [4, 5]: 12.5 to 25 µg/mL (≈ 35.6 to 71.2 µM)
solubility [4, 6]: 3.1 to 6.2 µg/mL (≈ 8.83 to 17.7 µM)
